For 14 compounds, TGI results are on record in PubChem BioAssay (NCI).

Test systems include 786-0 renal; A549 NSCLC; MALME-3M melanoma; NCI-H460 lung; OVCAR-3 ovarian; OVCAR-5 ovarian; SF-295 CNS; SK-MEL-2 melanoma; SK-MEL-5 melanoma; SK-OV-3 ovarian; MDA-N.
Test in all cases: NCI anticancer screen, dose series, 48 h

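Where inhibition never reached the appropriate level, the endpoint shown equals the highest concentration tested. Otherwise, values were interpolated linearly from a five-concentration, 48-hour dose response in 96-well plates. Definition used: TGI = concentration required for complete inhibition of growth.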

`O=C1Nc2ccccc2C12CCNC2Cc1ccccc1` (stereo unspecified): the TGI in the test on 786-0 renal, with A549 NSCLC, in the test with MALME-3M melanoma, in the test with NCI-H460 lung, with OVCAR-3 ovarian and in the test with OVCAR-5 ovarian was over 100 µM each time. For the same compound, the TGI in the test on SF-295 CNS, in the test on SK-MEL-2 melanoma, in the test on SK-MEL-5 melanoma and in the test on SK-OV-3 ovarian was over 100 µM throughout.

As for `Cc1nc(Nc2ccc(Cl)cc2)sc1C(=O)NNc1ccc([N+](=O)[O-])cc1[N+](=O)[O-]`, the TGI in the test with 786-0 renal was 29.8 µM; in the test on A549 NSCLC, 34.2 µM; with MALME-3M melanoma it was 36.2 µM; in the test on NCI-H460 lung, 34.7 µM; with OVCAR-3 ovarian, 38.7 µM; with OVCAR-5 ovarian, 30.7 µM. The TGI worked out at 38.5 µM in the test on SF-295 CNS, 32.7 µM in the test on SK-MEL-2 melanoma, 30.2 µM in the test on SK-MEL-5 melanoma and 52.3 µM in the test on SK-OV-3 ovarian.

With `OC(c1cc2ccccc2o1)c1cc2ccccc2s1` (stereo unspecified), the TGI in the test with 786-0 renal, in the test on A549 NSCLC, with MDA-N, with NCI-H460 lung, with OVCAR-3 ovarian and with OVCAR-5 ovarian was over 10 µM throughout. The TGI in the test with SF-295 CNS, in the test with SK-MEL-2 melanoma, in the test with SK-MEL-5 melanoma and in the test on SK-OV-3 ovarian was over 10 µM each time.

As for `COC(=O)CCC(=O)NC1=C(NCc2ccccc2)C(=O)c2ccccc2C1=O`, the TGI was over 100 µM with 786-0 renal; over 100 µM in the test on A549 NSCLC; 29.6 µM in the test with MDA-N; over 100 µM with NCI-H460 lung; 33.3 µM in the test on OVCAR-3 ovarian; 98.7 µM in the test with OVCAR-5 ovarian. For the same compound, the TGI is over 100 µM in the test on SF-295 CNS, 67.1 µM in the test with SK-MEL-2 melanoma, 24.9 µM in the test with SK-MEL-5 melanoma and over 100 µM with SK-OV-3 ovarian.

Consider `COC(=O)/C=C1/CCC(C(=O)OC)N1` (stereo unspecified), for which the TGI with 786-0 renal, in the test with A549 NSCLC, in the test on NCI-H460 lung, in the test on OVCAR-3 ovarian, with SF-295 CNS and in the test with SK-MEL-2 melanoma was over 100 µM throughout. Further, the TGI in the test on SK-MEL-5 melanoma and in the test on SK-OV-3 ovarian was over 100 µM each time.

For `O=C(/N=C/c1c(O)c2ccccc2oc1=O)Nc1ccccc1`, the TGI in the test with 786-0 renal was over 100 µM; in the test on A549 NSCLC it was over 100 µM; in the test on MALME-3M melanoma, 94 µM; in the test on NCI-H460 lung it was over 100 µM; with OVCAR-3 ovarian, over 100 µM; in the test on OVCAR-5 ovarian it was over 100 µM. In addition, the TGI was over 100 µM in the test on SF-295 CNS, 80.4 µM with SK-MEL-2 melanoma, over 100 µM with SK-MEL-5 melanoma and over 100 µM in the test with SK-OV-3 ovarian.

With `COc1cc2c(cc1OC)C(C(CO)CO)N(CC(O)CCl)CC2` (stereo unspecified), the TGI in the test on 786-0 renal, in the test on A549 NSCLC, in the test with MALME-3M melanoma, in the test on NCI-H460 lung, in the test on OVCAR-3 ovarian and in the test on OVCAR-5 ovarian was over 100 µM throughout. For the same compound, the TGI with SF-295 CNS, with SK-MEL-2 melanoma, in the test on SK-MEL-5 melanoma and with SK-OV-3 ovarian was over 100 µM throughout.

Turning to `Cc1nc(C)c(C(=O)NNC(N)=S)cc1C(=O)NNC(N)=S`, the TGI in the test on 786-0 renal, in the test with A549 NSCLC, with MDA-N, in the test on NCI-H460 lung, with OVCAR-3 ovarian and in the test on OVCAR-5 ovarian was over 100 µM each time. The TGI with SF-295 CNS, in the test with SK-MEL-2 melanoma, in the test with SK-MEL-5 melanoma and with SK-OV-3 ovarian was over 100 µM throughout.

Consider `Cc1ccsc1/C=N/Nc1nc2ccccc2s1`, for which the TGI in the test with 786-0 renal is 24.7 µM; with A549 NSCLC it was 50.5 µM; with MDA-N, over 100 µM; in the test on OVCAR-3 ovarian, 60.7 µM; with OVCAR-5 ovarian it was over 100 µM; in the test on SF-295 CNS, 23.8 µM. Also, the TGI came out at 75.3 µM in the test with SK-MEL-2 melanoma, 47.9 µM in the test with SK-MEL-5 melanoma and 35.3 µM in the test with SK-OV-3 ovarian.

Regarding `COc1ccc2c(c1)N1CCc3cc(OC)c(OC)cc3C1C2` (stereo unspecified), the TGI in the test on 786-0 renal, in the test with A549 NSCLC, in the test with MALME-3M melanoma, with NCI-H460 lung, in the test on SF-295 CNS and with SK-MEL-2 melanoma was over 100 µM in each case. The same compound had a TGI with SK-OV-3 ovarian of over 100 µM.

Regarding `Cc1cccc2c(=O)c([Se]c3coc4c(C)cccc4c3=O)coc12`, the TGI in the test on 786-0 renal came out at 31 µM; in the test with A549 NSCLC it was 23.9 µM; in the test with MALME-3M melanoma it was 33.6 µM; with NCI-H460 lung, 21.3 µM; in the test on OVCAR-3 ovarian it was 65.6 µM; with OVCAR-5 ovarian, 34.7 µM. For the same compound, the TGI in the test on SF-295 CNS came to 17.8 µM; in the test on SK-MEL-2 melanoma, 33.5 µM; in the test on SK-MEL-5 melanoma it was 32.7 µM; in the test with SK-OV-3 ovarian, 31.5 µM.

With `C[C@]12CCC(=O)C=C1CC[C@@H]1[C@@H]2[C@@H](O)C[C@@]2(C)[C@H]1CC[C@]2(O)C(=O)COC(=O)COCC(=O)O`, the TGI in the test on 786-0 renal, in the test with A549 NSCLC, in the test on MALME-3M melanoma, in the test on NCI-H460 lung, with OVCAR-3 ovarian and with OVCAR-5 ovarian was over 100 µM throughout. The TGI in the test with SF-295 CNS, with SK-MEL-2 melanoma, with SK-MEL-5 melanoma and with SK-OV-3 ovarian was over 100 µM each time.

As for `BrCCCCCOc1ccc(-c2c3ccccc3c(-c3ccc(OCCCCCBr)cc3)c3ccccc23)cc1`, the TGI with 786-0 renal, in the test with A549 NSCLC, in the test on MDA-N, with NCI-H460 lung, with OVCAR-5 ovarian and with SF-295 CNS was over 100 µM throughout. Further, the TGI in the test on SK-MEL-2 melanoma, in the test on SK-MEL-5 melanoma and in the test on SK-OV-3 ovarian was over 100 µM in each case.

Regarding `NC(CCCC(N)P(=O)(O)c1ccccc1)P(=O)(O)c1ccccc1` (stereo unspecified), the TGI with 786-0 renal, in the test on A549 NSCLC, with MALME-3M melanoma, with NCI-H460 lung, in the test with OVCAR-3 ovarian and with SF-295 CNS was over 261 µM in each case. The TGI with SK-MEL-2 melanoma and in the test with SK-OV-3 ovarian was over 261 µM each time.
